According to US20230065368A1, “INHIBITING UBIQUITIN SPECIFIC PEPTIDASE 9X” (FORMA Therapeutics, Inc., priority 2018, published 2023):
pIC50: −log10 of the molar value.

Molecular target: USP9X (Homo sapiens, UniProt Q93008)
Experiment: Biochemical Assay for USP9X Inhibition (Ub-Rh110 fluorescence)
Settings: Biochemical Assay of Example 1, 25 nM Ub-Rh110, 30 min preincubation, Table 23 additional compounds
Protocol: Biochemical Assay for USP9X Inhibition
Concentration and incubation times were optimized for the maximal signal-to-background while maintaining initial velocity conditions at a fixed substrate concentration (<<Km). […] To assay plates (pre-stamped with compound) was added 3 μL 2× Enzyme. The enzyme was preincubated for 30 minutes and then treated with 3 μL of 2× Substrate. […] The slope (best fit linear regression) of the five reads was used to normalize for inhibition. For all assays, data are reported as percent inhibition compared with control wells based on the following equation: […], wherein FLU is measured Fluorescence, AveLow is average Fluorescence of no enzyme control (n=64), and AveHigh is average Fluorescence of DMSO control (n=64). IC50 values are determined by curve fitting of the standard 4 parameter logistic fitting algorithm included in the Activity Base software package: IDBS XE Designer Model205. Data are fitted using the Levenburg Marquardt algorithm.

USP9X, sequence (Q93008 whole entry, species assumed): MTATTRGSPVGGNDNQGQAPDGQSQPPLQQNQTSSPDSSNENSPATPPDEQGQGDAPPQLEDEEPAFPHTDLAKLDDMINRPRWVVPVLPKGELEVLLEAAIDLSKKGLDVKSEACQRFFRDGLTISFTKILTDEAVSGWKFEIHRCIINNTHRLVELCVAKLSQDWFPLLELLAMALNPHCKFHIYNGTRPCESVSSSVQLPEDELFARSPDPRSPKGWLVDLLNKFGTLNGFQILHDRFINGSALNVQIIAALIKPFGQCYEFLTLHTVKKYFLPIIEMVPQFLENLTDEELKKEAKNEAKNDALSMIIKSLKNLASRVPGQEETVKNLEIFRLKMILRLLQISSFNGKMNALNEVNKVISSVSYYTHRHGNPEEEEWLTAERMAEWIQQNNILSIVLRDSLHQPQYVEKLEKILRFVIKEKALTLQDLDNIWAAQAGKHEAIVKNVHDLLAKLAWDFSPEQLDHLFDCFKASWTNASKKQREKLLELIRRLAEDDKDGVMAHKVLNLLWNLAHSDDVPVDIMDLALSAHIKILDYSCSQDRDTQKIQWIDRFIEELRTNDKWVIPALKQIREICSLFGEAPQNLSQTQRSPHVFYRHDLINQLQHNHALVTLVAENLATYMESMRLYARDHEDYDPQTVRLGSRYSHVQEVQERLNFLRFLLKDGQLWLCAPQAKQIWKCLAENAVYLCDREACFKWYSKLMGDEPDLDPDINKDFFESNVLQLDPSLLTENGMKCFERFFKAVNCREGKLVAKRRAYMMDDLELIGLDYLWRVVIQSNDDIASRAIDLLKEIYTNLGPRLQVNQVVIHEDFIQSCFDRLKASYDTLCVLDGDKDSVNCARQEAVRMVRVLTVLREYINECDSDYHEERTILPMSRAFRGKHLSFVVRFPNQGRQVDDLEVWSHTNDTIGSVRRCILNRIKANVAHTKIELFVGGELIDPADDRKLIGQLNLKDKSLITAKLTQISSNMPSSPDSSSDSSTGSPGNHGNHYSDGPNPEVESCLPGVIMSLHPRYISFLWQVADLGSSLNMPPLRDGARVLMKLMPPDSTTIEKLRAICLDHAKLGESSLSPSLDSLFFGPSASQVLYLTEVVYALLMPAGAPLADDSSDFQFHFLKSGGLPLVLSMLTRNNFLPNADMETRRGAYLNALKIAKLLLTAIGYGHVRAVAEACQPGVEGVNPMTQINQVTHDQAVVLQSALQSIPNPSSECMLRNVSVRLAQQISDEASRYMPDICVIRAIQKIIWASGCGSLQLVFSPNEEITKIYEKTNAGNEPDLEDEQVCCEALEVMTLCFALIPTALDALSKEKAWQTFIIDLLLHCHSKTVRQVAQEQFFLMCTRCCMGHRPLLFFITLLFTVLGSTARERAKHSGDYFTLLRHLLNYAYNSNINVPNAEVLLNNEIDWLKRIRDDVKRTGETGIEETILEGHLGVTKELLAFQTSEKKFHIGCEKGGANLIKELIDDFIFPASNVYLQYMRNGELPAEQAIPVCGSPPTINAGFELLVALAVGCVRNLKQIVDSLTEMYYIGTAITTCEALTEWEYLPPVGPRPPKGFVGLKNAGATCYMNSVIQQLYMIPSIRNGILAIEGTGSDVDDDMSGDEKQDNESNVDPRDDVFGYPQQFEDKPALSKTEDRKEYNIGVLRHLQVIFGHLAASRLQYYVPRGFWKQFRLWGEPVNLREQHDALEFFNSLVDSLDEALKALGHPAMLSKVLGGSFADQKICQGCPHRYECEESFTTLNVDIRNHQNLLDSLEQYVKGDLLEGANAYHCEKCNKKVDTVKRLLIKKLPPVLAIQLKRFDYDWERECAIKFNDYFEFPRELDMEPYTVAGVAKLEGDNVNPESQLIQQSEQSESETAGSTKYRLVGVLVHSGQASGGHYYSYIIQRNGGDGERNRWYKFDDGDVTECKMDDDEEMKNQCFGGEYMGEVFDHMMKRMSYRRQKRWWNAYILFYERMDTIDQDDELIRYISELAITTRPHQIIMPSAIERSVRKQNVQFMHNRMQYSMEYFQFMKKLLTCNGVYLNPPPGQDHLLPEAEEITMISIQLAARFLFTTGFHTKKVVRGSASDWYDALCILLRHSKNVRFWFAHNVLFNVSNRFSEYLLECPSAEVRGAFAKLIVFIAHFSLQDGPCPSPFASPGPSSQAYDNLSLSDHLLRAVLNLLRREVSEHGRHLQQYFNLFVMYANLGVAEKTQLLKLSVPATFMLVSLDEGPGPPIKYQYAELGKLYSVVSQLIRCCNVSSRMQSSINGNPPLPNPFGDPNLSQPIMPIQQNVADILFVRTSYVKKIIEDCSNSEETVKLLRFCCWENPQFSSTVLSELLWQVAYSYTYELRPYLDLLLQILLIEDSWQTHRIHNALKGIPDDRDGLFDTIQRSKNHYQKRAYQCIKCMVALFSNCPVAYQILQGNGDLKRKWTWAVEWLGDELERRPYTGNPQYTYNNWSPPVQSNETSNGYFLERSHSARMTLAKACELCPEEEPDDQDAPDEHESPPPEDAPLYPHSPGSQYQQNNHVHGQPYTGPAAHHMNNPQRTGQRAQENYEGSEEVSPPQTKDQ

Compound | pIC50
O=C([C@@H](CO)c1ccccc1)N1CC2=C(C1)CN(S(=O)(=O)c1cnc3c(c1)OCCO3)C2 [Example C-7] | 5.70 to 6.70
O=C([C@H](CO)c1ccccc1)N1CC2=C(C1)CN(S(=O)(=O)c1cnc3c(c1)OCCO3)C2 [Example C-8] | 4.60 to 5.70
